PubChem BioAssay AID651801 (Broad Institute, 2012)
The source made the active and inactive calls.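 The calls were made as follows: active = signal falling with dose and AC50 at most twice the top valid tested dose; inconclusive = flat fit with inhibition of 30 to 70%, or poor fit; inactive = the rest, plus effects in the rising direction.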

biological target: Kelch-like ECH-associated protein 1 (Homo sapiens) (UniProt Q14145); assay: disruptors of Keap1 Kelch-Nrf2 peptide binding – biochemical, fluorescence polarization, dry powder, set 2, dose response (AID 651801); details: Keap1 Kelch/FITC-Nrf2 peptide fluorescence polarization
Sequence (Q14145 whole entry, looked up): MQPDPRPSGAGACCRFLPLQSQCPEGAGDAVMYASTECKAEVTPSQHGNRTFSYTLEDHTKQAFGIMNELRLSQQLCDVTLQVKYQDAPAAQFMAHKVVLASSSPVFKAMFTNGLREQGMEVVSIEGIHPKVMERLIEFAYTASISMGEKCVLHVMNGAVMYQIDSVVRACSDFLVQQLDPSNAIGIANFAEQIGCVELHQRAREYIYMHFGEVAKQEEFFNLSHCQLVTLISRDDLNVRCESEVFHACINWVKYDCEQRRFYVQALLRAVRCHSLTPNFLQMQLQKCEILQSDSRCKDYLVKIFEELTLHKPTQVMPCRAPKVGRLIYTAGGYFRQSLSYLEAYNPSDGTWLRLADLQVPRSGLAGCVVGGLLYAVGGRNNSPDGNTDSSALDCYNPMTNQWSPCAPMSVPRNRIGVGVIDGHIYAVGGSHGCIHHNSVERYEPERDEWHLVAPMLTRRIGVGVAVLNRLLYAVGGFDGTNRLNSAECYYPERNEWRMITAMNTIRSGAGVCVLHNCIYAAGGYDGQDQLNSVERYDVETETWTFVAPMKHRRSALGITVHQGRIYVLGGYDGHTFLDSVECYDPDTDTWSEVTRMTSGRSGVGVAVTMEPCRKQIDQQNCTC

Compound | AC50
O=C(NC[C@@H]1c2ccccc2CCN1C(=O)[C@@H]1CCCC[C@@H]1C(=O)O)c1ccc(CN2CCOCC2)cc1 | > 100 µM (inactive)
O=C(NCCc1ccccc1)c1ccccc1C(=O)NC[C@@H]1c2ccccc2CCN1C(=O)C1CCCCC1C(=O)O (stereo partly drawn) | > 100 µM (inactive)
CC(=O)Nc1cc(NS(=O)(=O)c2c(C)cc(C)cc2C)c2ccccc2c1O | 9.18 µM
O=C(NCCO)c1ccccc1C(=O)NC[C@@H]1c2ccccc2CCN1C(=O)C1CCCCC1C(=O)O (stereo partly drawn) | > 100 µM (inactive)
O=C(O)[C@H]1C2C=CC(C2)[C@H]1C(=O)N1CCc2ccccc2C1CN1C(=O)c2ccccc2C1=O (stereo partly drawn) | > 100 µM (inactive)
O=C(O)[C@H]1CCCC[C@H]1C(=O)N1CCC2=C(CCCC2)C1CN1C(=O)c2ccccc2C1=O (stereo partly drawn) | > 100 µM (inactive)
Cc1ccc(S(=O)(=O)NC(=O)[C@@H]2c3ccccc3CCN2C(=O)[C@@H]2CCCC[C@@H]2C(=O)O)cc1 | > 100 µM (inactive)
O=C(O)C1CCCCC1C(=O)N1CCc2ccccc2C1CN1Cc2ccccc2C1=O (stereo not drawn) | 23.6 µM
Cc1ccc(S(=O)(=O)Nc2cc(C(C(=O)OC(C)C)C(=O)C(F)(F)F)c(O)c3ccccc23)c(C)c1 (stereo not drawn) | 2.43 µM
Cc1ccc(S(=O)(=O)Nc2cc(C(C(=O)OC(C)C)C(=O)C(F)(F)F)c(O)c3ccccc23)cc1 (stereo not drawn) | 7.4 µM
O=C(O)C1CCCCC1C(=O)N1CCc2ccccc2C1CN1C(=O)[C@H]2CCCC[C@H]2C1=O (stereo partly drawn) | > 100 µM (inactive)
COC(=O)C(C(=O)OC)c1cc(NS(=O)(=O)c2c(C)cc(C)cc2C)c2ccccc2c1O | 39.5 µM
O=C(O)C1CCCCC1C(=O)N1CCc2ccccc2C1CN1C(=O)Cc2ccccc2C1=O (stereo not drawn) | > 100 µM (inactive)
O=C(O)Cc1ccccc1C(=O)N1CCc2ccccc2[C@H]1CN1C(=O)c2ccccc2C1=O | 23.6 µM
NC(=O)c1ccccc1C(=O)NC[C@@H]1c2ccccc2CCN1C(=O)[C@@H]1CCCC[C@@H]1C(=O)O | > 100 µM (inactive)
Cc1ccccc1S(=O)(=O)Nc1cc(C(C(=O)OC(C)C)C(=O)C(F)(F)F)c(O)c2ccccc12 (stereo not drawn) | 3.56 µM
Cc1cc(C)c(S(=O)(=O)Nc2cc(C(C(=O)OC(C)C)C(=O)C(F)(F)F)c(O)c3ccccc23)c(C)c1 (stereo not drawn) | 0.798 µM
CC(C)OC(=O)C(C(=O)C(F)(F)F)c1cc(NS(=O)(=O)c2ccccc2)c2ccccc2c1O (stereo not drawn) | 30 µM

same assay, conditions: Keap1 Kelch/FITC-Nrf2 peptide fluorescence polarization; at 12 µM (top of the series)

Compound | activity change, negative = inhibition
O=C1c2ccccc2C(=O)N1CC1c2ccccc2CCN1C(=O)Cc1ccccc1 (stereo not drawn) | inactive

same assay, conditions: Keap1 Kelch/FITC-Nrf2 peptide fluorescence polarization; at 50 µM (top of the series)

Compound | activity change, negative = inhibition
O=C(O)CC(=O)N1CCc2ccccc2C1CN1C(=O)c2ccccc2C1=O (stereo not drawn) | inactive
C[C@@H](NC(=O)C1CCCC[C@H]1C(=O)O)c1ccccc1 (mixture of isomers) | inactive
O=C(Oc1cc(CN2C(=O)c3ccccc3C2=O)c2ccccc2[n+]1[O-])c1cccc(Cl)c1 | inactive
COC(=O)[C@H]1CCCC[C@H]1C(=O)N1CCc2ccccc2[C@H]1CN1C(=O)c2ccccc2C1=O | inactive
Cc1cc(C)c(S(=O)(=O)Nc2nc(C(C(=O)OC(C)C)C(=O)C(F)(F)F)nc3ccccc23)c(C)c1 (stereo not drawn) | inactive
O=C(O)[C@H]1CCCC[C@H]1C(=O)NC(CN1C(=O)c2ccccc2C1=O)c1ccccc1 (stereo partly drawn) | inactive
COC(=O)[C@@H]1CCCC[C@@H]1C(=O)N1CCc2ccccc2[C@H]1CN1C(=O)c2ccccc2C1=O | inactive
Cc1cc(C)c(S(=O)(=O)Nc2ncnc3ccccc23)c(C)c1 | inactive
Cc1ccc(S(=O)(=O)NNc2nc(C(C(=O)OC(C)C)C(=O)C(F)(F)F)nc3ccccc23)cc1 (stereo not drawn) | inactive
O=C(O)c1ccccc1C(=O)NC[C@@H]1c2ccccc2CCN1C(=O)[C@@H]1CCCC[C@@H]1C(=O)O | inactive
Cc1ccc(S(=O)(=O)NC2=CC(=N[C@@H](C)C(=O)OC(C)(C)C)C(=O)c3ccccc32)c(C)c1 | inactive
O=C(O)CCCC(=O)N1CCc2ccccc2C1CN1C(=O)c2ccccc2C1=O (stereo not drawn) | inactive
O=C(O)[C@H]1CCCC[C@H]1C(=O)N1CCc2ccccc2[C@H]1CNS(=O)(=O)c1ccc([N+](=O)[O-])cc1 | inactive
O=C(O)[C@H]1CCCC[C@H]1C(=O)N1CCc2ccccc2[C@H]1CNc1nc(Cl)nc2ccccc12 | inactive
O=C(O)C1CCCCC1C(=O)NCC1c2ccccc2CCN1C(=O)Cc1ccccc1 (stereo not drawn) | inactive
O=C(O)[C@H]1CCCC[C@H]1C(=O)N1CCc2ccccc2[C@H]1CNS(=O)(=O)c1ccccc1 | inactive
COc1ccccc1CCNC(=O)[C@@H]1c2ccccc2CCN1C(=O)C1CCCCC1C(=O)O (stereo partly drawn) | inactive
C=CC(=O)NC[C@@H]1c2ccccc2CCN1C(=O)[C@@H]1CCCC[C@@H]1C(=O)O | inactive
O=C(O)/C=C\C(=O)N1CCc2ccccc2C1CN1C(=O)c2ccccc2C1=O (stereo not drawn) | inactive
O=C1c2ccccc2C(=O)N1C[C@@H]1c2ccccc2CCN1C(=O)OCc1ccccc1 | inactive

Compound | activity change, negative = inhibition
Cc1ccc(S(=O)(=O)NNc2nc(N3CC(O)CC3C(=O)O)nc3ccccc23)cc1 (stereo not drawn) | inactive
COC(=O)[C@@H]1CCCC[C@@H]1C(=O)N1CCc2ccccc2[C@@H]1CN1C(=O)c2ccccc2C1=O | inactive
O=C(O)[C@H]1CCCC[C@H]1C(=O)N1CCc2ccccc2C1CCN1C(=O)c2ccccc2C1=O (stereo partly drawn) | inactive
O=C(O)C1CCCCC1C(=O)N1CCCCC1CN1C(=O)c2ccccc2C1=O (stereo not drawn) | inactive
CCOC(=O)C(C(=O)OCC)c1cc(CNS(=O)(=O)c2ccc(C)cc2C)c2ccccc2n1 | inactive
O=C(NC[C@@H]1c2ccccc2CCN1C(=O)[C@@H]1CCCC[C@@H]1C(=O)O)c1ccccc1CO | inactive
O=S(=O)(Nc1nc(NCC2CCCCC2)nc2ccccc12)c1ccccc1 | inactive
Cc1cc(C)c(S(=O)(=O)Nc2nc(NCCO)nc3ccccc23)c(C)c1 | inactive
Cc1cc(C)c(S(=O)(=O)Nc2nc(N(C)C)nc3ccccc23)c(C)c1 | inactive
COc1ccc(CCN=C2C=C(NS(=O)(=O)c3c(C)cc(C)cc3C)c3ccccc3C2=O)cc1 | inactive
O=C(O)[C@H]1CCCC[C@H]1C(=O)N1CCC2=C(CCCC2)C1CN1C(=O)c2ccccc2C1=O (stereo partly drawn) | inactive
C[C@H](NC(=O)C1CCCC[C@H]1C(=O)O)c1ccccc1 (mixture of isomers) | inactive
O=C1c2ccccc2C(=O)N1C[C@H]1NCCc2ccccc21 | inactive
Cc1ccc(S(=O)(=O)NC(=O)[C@@H]2c3ccccc3CCN2C(=O)[C@@H]2CCCC[C@@H]2C(=O)O)cc1 | inactive
O=C(O)C1CCCCC1C(=O)N1CCc2ccccc2[C@H]1C(=O)NCCc1ccccc1 (stereo partly drawn) | inactive
CC(C)CNc1nc(NS(=O)(=O)c2ccccc2)c2ccccc2n1 | inactive
O=C(Cc1ccccc1)NC[C@@H]1c2ccccc2CCN1C(=O)[C@@H]1CCCC[C@@H]1C(=O)O | inactive
COC(=O)CNc1nc(NS(=O)(=O)c2c(C)cc(C)cc2C)c2ccccc2n1 | inactive
CCOC(=O)C(C(=O)OCC)c1nc(NS(=O)(=O)c2c(C)cc(C)cc2C)c2ccccc2n1 | inactive
O=C(O)C1CCCCC1C(=O)Nc1ccccc1CN1C(=O)c2ccccc2C1=O (stereo not drawn) | inactive

Compound | activity change, negative = inhibition
O=C1c2ccccc2C(=O)N1C[C@@H]1c2ccccc2CCN1C(=O)C1CCCCC1 | inactive
O=C(NCCCN1CCOCC1)c1ccccc1C(=O)NC[C@@H]1c2ccccc2CCN1C(=O)C1CCCCC1C(=O)O (stereo partly drawn) | inactive
O=C(O)C1CCCCC1C(=O)N1CCc2ccccc2C1c1ccccc1 (stereo not drawn) | inactive
CCOC(=O)Cc1nc(NS(=O)(=O)c2c(C)cc(C)cc2C)c2ccccc2n1 | inactive
COC(=O)C1CCCCC1C(=O)N1CCc2ccccc2C1CN1C(=O)c2ccccc2C1=O (stereo not drawn) | inactive
O=C(O)[C@H]1CCCC[C@H]1C(=O)N1CCc2ccccc2C1 (racemic) | inactive
O=C(O)CCC(=O)N1CCc2ccccc2C1CN1C(=O)c2ccccc2C1=O (stereo not drawn) | inactive
O=C(NC[C@@H]1c2ccccc2CCN1C(=O)[C@@H]1CCCC[C@@H]1C(=O)O)c1ccc(CCl)cc1 | inactive
O=C(O)c1ccccc1C(=O)N1CCc2ccccc2C1CN1C(=O)c2ccccc2C1=O (stereo not drawn) | inactive
O=C(NC[C@@H]1c2ccccc2CCN1C(=O)[C@@H]1CCCC[C@@H]1C(=O)O)OCC1c2ccccc2-c2ccccc21 | inactive
CCOC(=O)C(C(=O)OCC)c1cc(CN2C(=O)c3ccccc3C2=O)c2ccccc2n1 | inactive
O=C(O)C1CCCCC1C(=O)N1CCc2ccccc2[C@H]1C(=O)NC12CC3CC(CC(C3)C1)C2 (stereo partly drawn) | inactive
O=C(O)[C@@H]1CCCN1C(=O)N1CCc2ccccc2[C@H]1CN1C(=O)c2ccccc2C1=O | inactive
NC(=O)[C@H]1CCCC[C@H]1C(=O)N1CCc2ccccc2[C@H]1CN1C(=O)c2ccccc2C1=O | inactive
Cc1cc(C)c(S(=O)(=O)Nc2cc(C(C(=O)OCc3ccccc3)C(=O)OCc3ccccc3)c(O)c3ccccc23)c(C)c1 | inactive
O=C(NC[C@@H]1c2ccccc2CCN1C(=O)[C@@H]1CCCC[C@@H]1C(=O)O)c1ccccc1 | inactive
Cc1ccc(S(=O)(=O)NNc2nc(NCC(N)=O)nc3ccccc23)cc1 | inactive
O=C1c2ccccc2C(=O)N1CC1=NCCc2ccccc21 | inactive
Cc1ccc(S(=O)(=O)NC[C@@H]2c3ccccc3CCN2C(=O)[C@@H]2CCCC[C@@H]2C(=O)O)c(C)c1 | inactive
